Experimental findings from patent publication US5593984A, “Cephalosporin derivatives” (Yuhan Corporation, priority 1992, dated 1997) are described below.

SMILES strings stand for the structures. Converted amounts (≈) assume the structure as drawn.

Holding throughout (format): cell-based
For one test, the system named is E. coli DY-1. In words: MIC by agar dilution, E. coli DY-1. To be noted: Escherichia coli, DY1, 17 h; E. coli DY-1; agar dilution, Mueller-Hinton agar; read-out: Minimal Inhibitory Concentration (MIC). The procedure, abridged:
(§1)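 MIC is the endpoint, obtained by agar dilution after 17±1 hours at 35°-37° C. on Mueller-Hinton agar containing doubling compound concentrations; strains inoculated at 10^6 CFU per ml.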
(In agar dilution the substance is mixed into plates at graded concentrations.)

The next test has as its system Staph. aureus C-5216. In words: MIC by agar dilution, Staph. aureus C-5216. To be noted: Staphylococcus aureus, C5216, 17 h, Mueller-Hinton agar, read-out: Minimal Inhibitory Concentration (MIC). The gist of the method: as §1
In the next test the test system is M. morganii DY-1. In words: MIC by agar dilution, M. morganii DY-1. The following applies: Morganella morganii, DY1, 17 h; M. morganii DY-1; agar dilution, Mueller-Hinton agar; read-out: Minimal Inhibitory Concentration (MIC). The procedure, abridged:
as §1

The subject of the next test is Staph. aureus C-5113. Description: MIC by agar dilution, Staph. aureus C-5113. To be noted: Staphylococcus aureus, C5113, 17 h, Mueller-Hinton agar, read-out: Minimal Inhibitory Concentration (MIC). The procedure, abridged: as §1
Test [1] concerns Ps. aeruginosa NCTC 10490. In words: MIC by agar dilution, Ps. aeruginosa NCTC 10490. The following applies: Pseudomonas aeruginosa, NCTC10490, 17 h, Mueller-Hinton agar, read-out: Minimal Inhibitory Concentration (MIC). The gist of the method: as §1
The next test relates to Ent. aerogenes IFO 12979. Description: MIC by agar dilution, Ent. aerogenes IFO 12979. The following applies: Klebsiella aerogenes, IFO12979, 17 h, Mueller-Hinton agar, read-out: Minimal Inhibitory Concentration (MIC). The procedure, abridged: as §1
Test [2] relates to S. epidermidis ATCC 12228. In words: MIC by agar dilution, S. epidermidis ATCC 12228. The following applies: Staphylococcus epidermidis, ATCC12228, 17 h; S. epidermidis ATCC 12228; agar dilution, Mueller-Hinton agar; read-out: Minimal Inhibitory Concentration (MIC). The procedure, abridged:
as §1

In a further test the test system is P. vulgaris NCTC 8313. In words: MIC by agar dilution, P. vulgaris NCTC 8313. To be noted: Proteus vulgaris, NCTC8313, 17 h; P. vulgaris NCTC 8313; agar dilution, Mueller-Hinton agar; read-out: Minimal Inhibitory Concentration (MIC). The gist of the method: as §1
A further test deals with B. subtilis ATCC 6633. In words: MIC by agar dilution, B. subtilis ATCC 6633. The following applies: Bacillus subtilis, ATCC6633, 17 h; B. subtilis ATCC 6633; agar dilution, Mueller-Hinton agar; read-out: Minimal Inhibitory Concentration (MIC). The procedure, abridged: as §1
The subject of test [3] is Ps. aeruginosa ATCC 10145. Description: MIC by agar dilution, Ps. aeruginosa ATCC 10145. To be noted: Pseudomonas aeruginosa, ATCC10145, 17 h, Mueller-Hinton agar, read-out: Minimal Inhibitory Concentration (MIC). The gist of the method:
as §1

Another test has as its system Staph. aureus ATCC 6538P. Description: MIC by agar dilution, Staph. aureus ATCC 6538P. To be noted: Staphylococcus aureus, ATCC6538P, 17 h; Staph. aureus ATCC 6538P; agar dilution, Mueller-Hinton agar; read-out: Minimal Inhibitory Concentration (MIC). The procedure, abridged:
as §1

The subject of test [4] is Ser. marcescens IFO 12648. In words: MIC by agar dilution, Ser. marcescens IFO 12648. The following applies: Serratia marcescens, IFO12648, 17 h; Ser. marcescens IFO 12648; agar dilution, Mueller-Hinton agar; read-out: Minimal Inhibitory Concentration (MIC). The procedure, abridged:
as §1

The subject of the next test is Staph. aureus Smith. In words: MIC by agar dilution, Staph. aureus Smith. The following applies: Staphylococcus aureus, 17 h, Mueller-Hinton agar, read-out: Minimal Inhibitory Concentration (MIC). The gist of the method:
as §1

The test system of another test is Ps. aeruginosa DY-2. In words: MIC by agar dilution, Ps. aeruginosa DY-2. To be noted: Pseudomonas aeruginosa, DY2, 17 h; Ps. aeruginosa DY-2; agar dilution, Mueller-Hinton agar; read-out: Minimal Inhibitory Concentration (MIC). The procedure, abridged:
as §1

For another test, the system named is K. pneumoniae NCTC 9632. In words: MIC by agar dilution, K. pneumoniae NCTC 9632. The following applies: Klebsiella pneumoniae, NCTC9632, 17 h; K. pneumoniae NCTC 9632; agar dilution, Mueller-Hinton agar; read-out: Minimal Inhibitory Concentration (MIC). The gist of the method:
as §1

Another test relates to E. coli NIHJ JC-2. Description: MIC by agar dilution, E. coli NIHJ JC-2. To be noted: Escherichia coli, NIHJJC2, 17 h; E. coli NIHJ JC-2; agar dilution, Mueller-Hinton agar; read-out: Minimal Inhibitory Concentration (MIC). The gist of the method: as §1
A further test concerns Staph. aureus C-57. In words: MIC by agar dilution, Staph. aureus C-57. The following applies: Staphylococcus aureus, C57, 17 h, Mueller-Hinton agar, read-out: Minimal Inhibitory Concentration (MIC). The procedure, abridged: as §1
A further test deals with Prov. stuartii IFO 12930. Description: MIC by agar dilution, Prov. stuartii IFO 12930. To be noted: Providencia stuartii, IFO12930, 17 h, Mueller-Hinton agar, read-out: Minimal Inhibitory Concentration (MIC). The procedure, abridged: as §1
In a further test the test system is E. coli No. 29. In words: MIC by agar dilution, E. coli No. 29. The following applies: Escherichia coli, 17 h; E. coli No. 29; agar dilution, Mueller-Hinton agar; read-out: Minimal Inhibitory Concentration (MIC). The gist of the method: as §1
In a further test the test system is Ent. cloacae IFO 13535. Description: MIC by agar dilution, Ent. cloacae IFO 13535. To be noted: Enterobacter cloacae, IFO13535, 17 h; Ent. cloacae IFO 13535; agar dilution, Mueller-Hinton agar; read-out: Minimal Inhibitory Concentration (MIC). The gist of the method: as §1

Regarding `CO/N=C(\C(=O)N[C@@H]1C(=O)N2C(C(=O)[O-])=C(C[n+]3ccn4cccc4c3)CS[C@H]12)c1nsc(N)n1` [Ex. 48, 7-β-[(Z)-2-(5-amino-1,2,4-thiadiazol-3-yl)-2-methoxyiminoacetamido]-3-(pyrrolo [1,2-a]pyrazinium-2-yl)methyl-3-cephem-4-carboxylate], the MIC in the test on E. coli DY-1 was found to be 0.025 µg/mL (≈ 0.0486 µM); with Staph. aureus C-5216, 0.78 µg/mL (≈ 1.52 µM); in the test with M. morganii DY-1, 0.05 µg/mL (≈ 0.0972 µM); with Staph. aureus C-5113, 0.78 µg/mL (≈ 1.52 µM); in test [1], 0.1 µg/mL (≈ 0.194 µM); in the test with Ent. aerogenes IFO 12979, 0.012 µg/mL (≈ 0.0233 µM). Further, the MIC amounted to 0.1 µg/mL (≈ 0.194 µM) in [2]; 0.012 µg/mL (≈ 0.0233 µM) in the test on P. vulgaris NCTC 8313; 0.2 µg/mL (≈ 0.389 µM) with B. subtilis ATCC 6633; 0.39 µg/mL (≈ 0.758 µM) in test [3]; 0.39 µg/mL (≈ 0.758 µM) with Staph. aureus ATCC 6538P; 0.025 µg/mL (≈ 0.0486 µM) in [4]. Also, the MIC was 0.78 µg/mL (≈ 1.52 µM) with Staph. aureus Smith; 0.78 µg/mL (≈ 1.52 µM) in the test with Ps. aeruginosa DY-2; 0.025 µg/mL (≈ 0.0486 µM) in the test with K. pneumoniae NCTC 9632; 0.012 µg/mL (≈ 0.0233 µM) in the test on E. coli NIHJ JC-2; 6.25 µg/mL (≈ 12.1 µM) in the test with Staph. aureus C-57; at most 6 ng/mL with Prov. stuartii IFO 12930. For the same compound, the values for the MIC in the test with E. coli No. 29 and in the test on Ent. cloacae IFO 13535 were 0.012 µg/mL (≈ 0.0233 µM) and 0.025 µg/mL (≈ 0.0486 µM), respectively.

Take `CO/N=C(\C(=O)N[C@@H]1C(=O)N2C(C(=O)[O-])=C(C[n+]3ccn4c(CO)ccc4c3)CS[C@H]12)c1nc(N)sc1Cl` [Ex. 49, 7-β-[(Z)-2-(2-amino-5-chlorothiazol-4-yl)-2-methoxyiminoacetamido]-3-(6-hydroxymethylpyrrolo[1,2-a]-pyrazinium-2-yl)methyl-3-cephem-4-carboxylate]: the MIC is at most 0.006 µg/mL in the test on E. coli DY-1; 0.78 µg/mL (≈ 1.35 µM) in the test on Staph. aureus C-5216; 0.1 µg/mL (≈ 0.173 µM) in the test with M. morganii DY-1; 0.39 µg/mL (≈ 0.675 µM) in the test with Staph. aureus C-5113; 0.2 µg/mL (≈ 0.346 µM) in test [1]; 0.05 µg/mL (≈ 0.0865 µM) in the test on Ent. aerogenes IFO 12979. The MIC is 0.012 µg/mL (≈ 0.0208 µM) in test [2]; 0.025 µg/mL (≈ 0.0433 µM) with P. vulgaris NCTC 8313; 0.1 µg/mL (≈ 0.173 µM) in the test on B. subtilis ATCC 6633; 1.56 µg/mL (≈ 2.7 µM) in test [3]; 0.2 µg/mL (≈ 0.346 µM) in the test on Staph. aureus ATCC 6538P; 0.1 µg/mL (≈ 0.173 µM) in test [4]. The MIC in the test with Staph. aureus Smith was 0.39 µg/mL (≈ 0.675 µM); with Ps. aeruginosa DY-2 it was 3.13 µg/mL (≈ 5.41 µM); in the test with K. pneumoniae NCTC 9632 it was 0.1 µg/mL (≈ 0.173 µM); with E. coli NIHJ JC-2, 0.1 µg/mL (≈ 0.173 µM); with Staph. aureus C-57, 1.56 µg/mL (≈ 2.7 µM); with Prov. stuartii IFO 12930, at most 6 ng/mL. Moreover, the MIC in the test with E. coli No. 29 was determined as 0.025 µg/mL (≈ 0.0433 µM); with Ent. cloacae IFO 13535, 0.39 µg/mL (≈ 0.675 µM).

Take `CO/N=C(\C(=O)N[C@@H]1C(=O)N2C(C(=O)[O-])=C(C[n+]3ccn4c(CO)ccc4c3)CS[C@H]12)c1nsc(N)n1` [Ex. 50, 7-β-[(Z)-2-(5-amino-1,2,4-thiadiazol-3-yl)-2-methoxyiminoacetamido]-3-(6-hydroxymethylpyrrolo[1,2-a]-pyrazinium-2-yl)methyl-3-cephem-4-carboxylate]: the MIC with E. coli DY-1 is at most 0.006 µg/mL; in the test on Staph. aureus C-5216, 0.78 µg/mL (≈ 1.43 µM); with M. morganii DY-1, 0.012 µg/mL (≈ 0.022 µM); with Staph. aureus C-5113, 1.56 µg/mL (≈ 2.86 µM); in test [1] it was 0.1 µg/mL (≈ 0.184 µM); with Ent. aerogenes IFO 12979 it was at most 0.006 µg/mL. Further, the MIC in test [2] worked out at 0.05 µg/mL (≈ 0.0918 µM); in the test with P. vulgaris NCTC 8313, 0.012 µg/mL (≈ 0.022 µM); in the test with B. subtilis ATCC 6633, 0.1 µg/mL (≈ 0.184 µM); in test [3], 0.78 µg/mL (≈ 1.43 µM); in the test with Staph. aureus ATCC 6538P, 0.39 µg/mL (≈ 0.716 µM); in test [4] it was 0.012 µg/mL (≈ 0.022 µM). The MIC in the test with Staph. aureus Smith is 0.78 µg/mL (≈ 1.43 µM); in the test with Ps. aeruginosa DY-2, 1.56 µg/mL (≈ 2.86 µM); with K. pneumoniae NCTC 9632 it was 0.012 µg/mL (≈ 0.022 µM); in the test on E. coli NIHJ JC-2 it was at most 0.006 µg/mL; in the test on Staph. aureus C-57, 12.5 µg/mL (≈ 23 µM); in the test on Prov. stuartii IFO 12930, at most 6 ng/mL. In addition, the MIC in the test with E. coli No. 29 is at most 0.006 µg/mL; in the test with Ent. cloacae IFO 13535, 0.05 µg/mL (≈ 0.0918 µM).
